According to patent publication US5750540A, “1,4-di-substituted piperidine derivatives” (Banyu Pharmaceutical Co., Ltd., priority 1995, dated 1998):

Tests used:
[1] = biological target: T1, muscarinic M3 receptor (Rattus norvegicus, UniProt P08483); experiment: Intravesical bladder pressure in rats; assay type: in vivo; parameters: from tissue; conditions: i.v., 25% inhibition of peak intravesical bladder pressure
Protocol: (§1) Tests for antagonism against muscarinic M3 receptor (in vivo)
4) Tests for intravesical bladder pressure in rats
These tests were performed according to the method of Maggi et al. (Drug Dev. Res. 10: 157-170, 1987). Briefly, eight- to ten-weeks-old male rats of the Sprague-Dawley strain, weighing 330-370 g, were anesthetized by subcutaneous administration of urethane (1 g/kg) and α-chloralose (50 mg/kg), and the right jugular vein was cannulated for drug administration. The body temperature was kept constant by means of a heating pad maintained at 37° C. Through a midline incision of the abdomen, the urinary bladder was exposed and emptied of urine by the application of a slight manual pressure. A 20-gauge needle was inserted through the apex of the bladder dome by 3-4 mm into its lumen. The needle had previously been connected to a pressure transducer and an infusion pump by means of polyethylene tubing and the whole system filled with saline. After a 30-minutes equilibration period at zero volume, saline was infused (2.8 ml/hr) until a coordinated sustained contraction, reflecting the peak intravesical bladder pressure, occured. The bladder was then emptied manually and allowed to rest for five minutes. PvesP was defined as the difference between the maximum and resting bladder pressures. This procedure was repeated at least five times and the evaluation of a test compound was carried out in the animals in which a stable peak intravesical bladder pressure was recorded. The drug potency (ID25 ) was determined after intravenous administration of the test compound during the rest period. Five minutes after drug administration, the infusion of saline was started to induce micturition contraction and the peak intravesical bladder pressure was recorded. The depression in peak intravesical bladder pressure was expressed as a percent of the control peak intravesical bladder pressure observed before administration of the test compound. The ID25 value, calculated by probit analysis, was defined as the drug dose that inhibited the control peak intravesical bladder pressure by 25%.

[2] = biological target: T1, muscarinic M3 receptor; experiment: in vivo; parameters: from tissue; host or cells: living rat, airways; conditions: iv, 5 min, read-out: Airway contraction ID50
Protocol: as §1
1) Tests for bronchodilation in rats
Eight- to eleven-weeks-old male rats of the Sprague-Dawley strain, weighing 300-400 g, were anesthetized with urethane (750 mg/kg, i.p.) and a-chloralose (37.5 mg/kg, i.p.). A bronchus was intubated, and the right jugular vein was cannulated for drug administration. […] To evoke an increase in airway resistance, acetylcholine (50 μg/kg, i.v.) was administered to the animals. Mean values for the acetylcholine-induced increase in airway resistance as measured five minutes before (control) and five minutes after test compound administration were calculated and the results were expressed as percentages of the control response. The ID50 value was calculated from the dose-response curve of the test compound using probit analysis and defined as the drug dose that inhibited the acetylcholine-induced increase in airway resistance in the control group by 50 %.

[3] = biological target: T2, muscarinic M2 receptors (Rattus norvegicus, UniProt P10980); experiment: Bradycardia in rats (acetylcholine-induced); assay type: in vivo; conditions: iv, 5 min, i.v., 5 minutes after administration, 50% inhibition of acetylcholine-induced bradycardia, read-out: Bradycardia ID50
T2 construct: a membrane specimen from the heart was used as the membrane specimen; from tissue; host or cells: rat heart membranes (SD rat)
T2 sequence (P10980 1-466): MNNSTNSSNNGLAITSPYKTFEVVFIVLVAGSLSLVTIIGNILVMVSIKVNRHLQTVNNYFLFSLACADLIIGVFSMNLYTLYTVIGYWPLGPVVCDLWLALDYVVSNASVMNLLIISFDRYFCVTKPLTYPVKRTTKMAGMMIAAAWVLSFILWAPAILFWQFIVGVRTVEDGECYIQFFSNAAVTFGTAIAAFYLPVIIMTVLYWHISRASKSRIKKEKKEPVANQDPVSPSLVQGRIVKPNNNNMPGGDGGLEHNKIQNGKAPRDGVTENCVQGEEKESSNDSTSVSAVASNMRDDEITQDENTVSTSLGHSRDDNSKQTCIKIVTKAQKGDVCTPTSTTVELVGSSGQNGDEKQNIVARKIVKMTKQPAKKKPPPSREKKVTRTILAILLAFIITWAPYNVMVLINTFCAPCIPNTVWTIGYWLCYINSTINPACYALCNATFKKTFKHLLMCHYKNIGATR
Protocol: 6) Tests for bradycardia in rats
Eight- to eleven-weeks-old male rats of the Sprague-Dawley strain, weighing 300-400 g, were anesthetized with urethane (750 mg/kg, i.p.) and α-chloralose (37.5 mg/kg, i.p.). A bronchus was intubated, and the right jugular vein was cannulated for drug administration. […] To evoke bradycardia, acetylcholine (50 μg/kg, i.v.) was administered to the animals. Mean values for the acetylcholine-induced decrease in heart rate as measured five minutes before (control) and five minutes after test compound administration were calculated and the results were expressed as percentages relative to the control response. The ID50 value was calculated from the dose-response curve of the test compound using probit analysis and defined as the drug dose that inhibited the acetylcholine-induced bradycardia in the control group by 50%.

[4] = biological target: T1, muscarinic M3 receptor; experiment: Intestinal propulsion in rats (charcoal meal); assay type: in vivo; parameters: from tissue; conditions: i.v., 15% inhibition of intestinal propulsion
Protocol: as §1
5) Tests for intestinal propulsion in rats
Five- to seven-weeks-old male rats of the Sprague-Dawley strain were fasted overnight. A test compound was administered intravenously to the animals. Five minutes later, 1 ml per animal of a 5% charcoal suspension was administered orally. Thirty minutes after administration of the charcoal meal, the rats were sacrificed by decapitation, and the gastrointestinal tract was removed. The distance from the pylorus to the point of arrival of the charcoal meal was measured and the transportation rate was calculated. The ID15 value was calculated from the dose-response curve using probit analysis and defined as the drug dose that inhibited intestinal propulsion in the control group by 15%.

T1 sequence (P08483 whole entry): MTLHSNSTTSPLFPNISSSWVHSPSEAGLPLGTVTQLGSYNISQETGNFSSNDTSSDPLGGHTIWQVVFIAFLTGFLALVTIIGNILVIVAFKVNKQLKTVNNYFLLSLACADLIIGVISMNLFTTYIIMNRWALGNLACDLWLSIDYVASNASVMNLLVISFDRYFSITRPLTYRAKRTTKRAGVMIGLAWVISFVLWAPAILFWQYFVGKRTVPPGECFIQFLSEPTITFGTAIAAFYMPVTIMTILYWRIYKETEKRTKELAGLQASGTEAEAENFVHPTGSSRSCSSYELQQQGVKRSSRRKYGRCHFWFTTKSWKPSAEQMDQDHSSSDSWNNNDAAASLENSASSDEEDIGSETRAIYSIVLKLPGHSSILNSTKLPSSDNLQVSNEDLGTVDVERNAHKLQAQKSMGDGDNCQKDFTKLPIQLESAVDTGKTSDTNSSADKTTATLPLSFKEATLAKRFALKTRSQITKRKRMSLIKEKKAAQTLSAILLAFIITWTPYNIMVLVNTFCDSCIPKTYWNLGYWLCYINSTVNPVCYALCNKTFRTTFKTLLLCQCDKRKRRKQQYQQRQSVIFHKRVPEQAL

CC(C)=CCCN1CCC(NC(=O)C(O)(c2ccccc2)C2CCC2)CC1 (stereo not shown) [Example 1, N-[1-(4-methyl-3-pentenyl)-piperidin-4-yl]-2-cyclobutyl-2-hydroxy-2-phenylacetamide]
Urinating contraction ID25 [1]: 1.3 mg/kg i.v.
ED50 [2]: 0.023 mg/kg
ED50 [3]: > 3 mg/kg
Enterokinesis ID15 [4]: 0.67 mg/kg i.v.
